Measured values taken from BindingDB's records for doi:10.1021/jm9801197 (Kennesaw State University, 1999).

Assays:
[1] = Compound was evaluated for its binding affinity against Cannabinoid receptor 2 in Guinea pig ileum (GPI) using [3H]CP-55940 ligand
[2] = Compound was evaluated for its binding affinity against Cannabinoid receptor 1 in Guinea pig ileum (GPI) using [3H]SR-141,716A ligand at site 2
[3] = Compound was evaluated for its binding affinity against Cannabinoid receptor 1 in Guinea pig ileum (GPI) using [3H]CP-55940 ligand
[4] = Compound was evaluated for its binding affinity against Cannabinoid receptor 1 in Guinea pig ileum (GPI) using [3H]SR-141,716A ligand at site 1
[5] = Compound was evaluated for its binding affinity against Cannabinoid receptor 1 in Guinea pig ileum (GPI) using [3H]SR-141,716A ligand

SMILES: CC1=C(CCN2CCOCC2)c2ccccc2/C1=C/c1cccc2ccccc12 [4-(2-{2-Methyl-3-[1-naphthalen-1-yl-meth-(Z)-ylidene]-3H-inden-1-yl}-ethyl)-morpholine]
- Ki [1]: 2.1 nM

SMILES: C1=C(CCN2CCOCC2)c2ccccc2/C1=C/c1cccc2ccccc12 [4-(2-{3-[1-Naphthalen-1-yl-meth-(E)-ylidene]-3H-inden-1-yl}-ethyl)-morpholine]
- Ki [2]: 611 nM
- Ki [1]: 2.7 nM
- Ki [3]: 2.7 nM
- Ki [4]: 11 nM

SMILES: C1=C(CCN2CCOCC2)c2ccccc2/C1=C\c1cccc2ccccc12 [4-(2-{3-[1-Naphthalen-1-yl-meth-(Z)-ylidene]-3H-inden-1-yl}-ethyl)-morpholine]
- Ki [1]: 132 nM
- Ki [3]: 148 nM
- Ki [5]: 928 nM
